Experimental data from ChEMBL document CHEMBL3507680, “University of Dundee, Gates Library screen for HepG2 cell viability”.

Experiment: Human HepG2 cell viability assay in 384 well format
Type: toxicity, cell-based
Design: dose 125 nL, time 70.5 hour; cytotoxicity at 70.5 h: concentration not given beside the values
Conditions: HepG2 cells, read-out: Inhibition

SMILES | cytotoxicity at 70.5 h [%]
O=C(CCc1ccco1)N1CCC(Nc2cccnn2)CC1 | 1.07
CC(CNC(=O)c1cccc(C#N)c1)N1CCc2ccccc21 (configuration not stated) | -11.4
CCS(=O)(=O)N1CCC2(CCN(Cc3nccs3)CC2)CC1 | 15.2
O=C(Nc1ccccc1F)C1CSCN1C(=O)CCc1ccco1 (configuration not stated) | -8.52
O=C(NCCO)Nc1cccc(Cl)c1SC(F)F | 16.9
CCN1CCN(C(=O)c2[nH]c3ccccc3c2Cl)[C@H]2CS(=O)(=O)C[C@H]21 | -2.45
O=C1CCCN1CCN1CCCC(c2ccn[nH]2)C1 (configuration not stated) | 27.7
CN(Cc1ccccc1)S(=O)(=O)N1C[C@@H](C(=O)O)[C@H](C2CC2)C1 | -6.58
O=C(Cc1ccc(F)cc1)NCCNc1cc(N2CCCC2)ncn1 | 22.2
CCc1ncc2c(n1)CN(CC(=O)Nc1nnc(C)s1)CC2 | -3.21
COC(C(=O)NC1CC1)c1ccccc1 (configuration not stated) | 28.7
c1ccc2c(c1)CC(N1CCCC(NCc3cccc4nonc34)C1)C2 (configuration not stated) | -9.28
Cc1[nH]nc2ncc(C(=O)N3CCN(C(C)(C)C)CC3)cc12 | -0.02
COc1cc2c(nn1)CCN(CC(O)COc1ccc(C#N)cc1)C2 (configuration not stated) | 17.8
Cc1ccc(C(=O)N2CCn3c(COCC4CC4)cnc3C2C)nc1 (configuration not stated) | -8.57
Cc1noc(C)c1CNCc1nn(-c2ccccc2)c2c1CCC2 | -3.23
CNC(=O)C1Cn2ccnc2C2(CCN(Cc3cccc(C)n3)CC2)O1 (configuration not stated) | 0.339
O=C(Cc1ccccn1)N1CCc2ncnc(N3CCCC3)c2CC1 | -0.341
Cc1ncc(CN(C)C2CCCN(c3cccnn3)C2)s1 (configuration not stated) | -2.85
COc1ccccc1NC(=O)NCCCC(=O)Nc1cn[nH]c1 | 13.3
CNc1cc(C2CN(Cc3csc(C)n3)CCO2)nc(C)n1 (configuration not stated) | 9.88
O=C1[C@H]2CN(Cc3ccco3)C[C@H]2CN1c1cncnc1 | -5.56
Cc1ccc(CN2CCCC(c3nn(C)c4nccnc34)C2)s1 (configuration not stated) | 9.04

SMILES | cytotoxicity at 70.5 h [%]
O=C(NCCn1nc(C2CCNC2)c2cccnc21)c1ccccn1 (configuration not stated) | -2.16
CC(SCC(=O)N(C)CC(=O)NC1CC1)c1ccccc1F (configuration not stated) | -5.51
Cc1cc(C(=O)NCC(c2ccsc2)N(C)C)no1 (configuration not stated) | -5.66
CC(=O)N1CCC(NC(=O)c2ccc3c(c2O)OC(C)(C)C3)CC1 | -12.2
Cc1ccccc1C1CCCN1Cc1ccc(S(=O)(=O)N(C)C)o1 (configuration not stated) | -2.87
CCc1c(C)nn(CCNC(=O)c2cnn[nH]2)c1C | -5.63
CC(C)CNC(=O)N1CC[C@@H]2CN(Cc3cccnc3)S(=O)(=O)[C@@H]2CC1 | -4.92
CCOC(=O)c1ccc(CNC(=O)c2ccon2)o1 | 14.2
c1cc(CN2CC[C@@H]3[C@@H](CO[C@H]3CN3CCOCC3)C2)cs1 | -1.87
Cc1csc(C(=O)N2CC[C@H](Oc3cccnc3C)[C@@H](O)CC2)c1 | 14
COc1cc2c(cc1CN1CCc3sccc3C1C)OCO2 (configuration not stated) | 2.98
O=C(CN1CCCCCC1)N1CCc2nnc(C3CCCNC3)n2CC1 (configuration not stated) | 16
CC1CCc2nn(CCNC(=O)c3ccco3)c(=O)cc2C1 (configuration not stated) | -5.13
COCC(C)(C#N)NC(=O)COc1ccccc1 (configuration not stated) | -0.947
CCCc1cc(=O)[nH]c2nnc(SCC(=O)OC)n12 | -8.96
NC(=O)CCN1CCC(C(=O)c2cc(F)ccc2F)CC1 | 15
Cc1ccccc1OCC(=O)N1CCCC(CNS(C)(=O)=O)C1 (configuration not stated) | -5.65
Cn1ccnc1COc1ccc(CSc2nnnn2C)cc1 | -11.4
CCn1cc2c(n1)CN(S(=O)(=O)c1cn(C)cn1)CC2COC (configuration not stated) | -3.24
NCC(=O)N1CCC(c2cncc(Oc3cccnc3)n2)CC1 | 1.14
N#CCCN(C(=O)CN1CCCC1c1ccsc1)c1ccccc1F (configuration not stated) | -14
OC1CN(Cc2ccccc2)CCN(c2ccncc2)C1 (configuration not stated) | 11.5
CS(=O)(=O)c1ccc(-c2ccccc2C(=O)O)cc1 | -4.68

SMILES | cytotoxicity at 70.5 h [%]
O=C(c1ccc(=O)[nH]c1)N1CCCC1c1nc2cc(F)ccc2[nH]1 (configuration not stated) | -3.97
CC(OCC1CC1)C(=O)N1CCCN(c2ncccc2C#N)CC1 (configuration not stated) | 15.5
Cc1noc(C)c1CN1CCn2cc(CN3CCOCC3)nc2C1 | -0.251
Cc1occc1C(=O)Nc1ccnc(OC2CCOC2)c1 (configuration not stated) | -7.45
CCc1n[nH]c(C(=O)N2CCC3(CCCN(CCOC)C3=O)C2)c1C (configuration not stated) | -9.48
COCc1nccc(C2CCCN(Cc3ccc(SC)cc3)C2)n1 (configuration not stated) | -3.62
O=C(C1CCCN(CCc2ccc3c(c2)CCO3)C1)N1CCCC1 (configuration not stated) | 44.9
Cc1ncc(CNC(=O)Nc2cc(C(F)(F)F)c[nH]c2=O)s1 | 0.0851
F[C@@H]1CN(CC2CCCCC2)C[C@@H]1OCc1nc2ccccc2o1 | 1.33
CC(C)Nc1nc2c(cc1C(=O)NCC1CC1)CCN(C)CC2 | -8.36
CC(C)c1nnc(CN2CCCC(Cn3cncn3)C2)o1 (configuration not stated) | -7.64
c1cc([C@H]2C[C@@H]3CCN(Cc4nccs4)C[C@H]3O2)ncn1 | -3.39
c1ccc(CN2CCc3c(COCc4ccncc4)cncc3C2)nc1 | -4.58
CC(C)N(C)S(=O)(=O)c1ccc2c(c1)CCN(C(=O)c1ccccn1)C2 | 22.8
CCOC(=O)C1(Cc2cccc(OC)c2)CCN(Cc2ncc[nH]2)CC1 | -8.46
CC(=O)NCCNC(=O)NCc1ccc(Br)cc1Cl | -0.47
Cn1cnc2cc(C(=O)NS(=O)(=O)c3ccccc3Cl)ccc21 | -2.15
CN(C)CCO[C@@H]1CC[C@H]2[C@H]1OCCN2C(=O)COc1ccccc1 | -16.3
O=C(C1CCCCC1)N1CCC2(COc3ncccc3S(=O)(=O)N2)C1 (configuration not stated) | -4.42
Cc1cc(C(F)(F)F)nc(N2CCN(Cc3nccn3C)CC2)n1 | 4.75
CN(Cc1nc(CC2CC2)no1)CC1COc2ccccc2O1 (configuration not stated) | -3.03
O=C(C1CCC1)N1C[C@H]2CNC[C@H]2C1 | 13.3
Cc1nnc2n1CCN(Cc1nc3ccccc3o1)C2 | -3.32

SMILES | cytotoxicity at 70.5 h [%]
COc1ccc(OC)c(C2CCN(C(=O)[C@H]3CC[C@@H](O)CC3)C2)c1 (some centres not stated) | -9.68
COc1ccc(-c2cc(CN)ccc2F)c(OC)c1OC | 6.26
CC(C)OCCSCc1nnc(-c2cccc(F)c2)o1 | -5.57
CCNC(=O)N1CCCC(C(=O)c2cccc(OC(C)C)c2)C1 (configuration not stated) | -6.88
CC(C)n1cc(C(=O)NC2CN3CCC2CC3)c2ccccc21 (configuration not stated) | -20.2
CC(C(=O)N1CCCC1)n1nc(-c2cccs2)cc(N)c1=O (configuration not stated) | 5.25
Cc1ccsc1CN(Cc1ncccc1C(=O)O)C1CC1 | -5.62
CCc1cc(-c2cc[nH]n2)nc(N2CCOCC2)n1 | 15.6
CCc1cnc(CN(C)C2CCN(CCCNS(C)(=O)=O)C2)o1 (configuration not stated) | -2.35
CS(=O)(=O)c1ccc(OCCNCc2cccc(F)c2)cc1 | -2.08
Cc1nn(C)c(Cl)c1C1CCCN1c1ncnc2[nH]ccc12 (configuration not stated) | 12.9
COCCCNc1c(-c2ccccc2)c(=O)c1=O | -8.63
Cc1c(C(=O)N2CCSCC2)sc2nc(C(F)(F)F)ccc12 | -9.06
Cc1cnn(C2CCCN(C(=O)c3ccc(NC4CC4)nc3)C2)c1 (configuration not stated) | -13.3
CN(C)C(=O)NC[C@H]1OC[C@@H]2CCN(Cc3ccoc3)C[C@@H]21 | 52.3
CNC(=O)[C@H]1C[C@@H]2CN(S(=O)(=O)c3ccc(C)c(F)c3)C[C@@H]2N1C | -3.95
Cc1ccc(CN2CCCn3c(nc(Cn4cncn4)cc3=O)C2)s1 | -19.3
CCNc1ncc(C(=O)NCc2csc(-c3cnccn3)n2)cn1 | -10.4
COc1cccc(COCC(=O)N2CCCC(N3CCCC3)CC2)c1 (configuration not stated) | 3.21
COc1ccc(-c2ccnc3c2C(=O)CCC3)cc1 | 25.7
O=C1N[C@@H]2CCN(C(=O)C3CC3)[C@@H]2C(=O)N1c1ccc(F)cc1 | -13.5
O=C1NC2(Cc3ccccc31)CN(CC1CCCC1)C2 | -11.8
CCCc1nc(C)cc(N2CCC3(CCC(=O)N(CCO)C3)CC2)n1 | -4.4

SMILES | cytotoxicity at 70.5 h [%]
Cc1ccc(CNC(=O)CN(C)CC2CCN(CCO)CC2)s1 | 2.24
COCc1ccccc1C(=O)N1CCC(CNC(=O)OC(C)(C)C)C1 (configuration not stated) | -6.54
Cc1nnsc1CN1C[C@H]2CC[C@@H]1CN(Cc1ccccn1)C2 | -6.51
CN1[C@H](Cn2cccn2)C[C@@H]2CN(C(=O)Cc3cccs3)CC[C@@H]21 | 24.7
COc1ccccc1OCC(=O)NS(=O)(=O)c1ccc(Cl)s1 | -2.89
CC(C)c1cnc(CN2C(=O)CC3(CCSC3)C2=O)o1 (configuration not stated) | -3.08
COc1ccc(-c2noc([C@@H]3C[C@H](NC(=O)NC(C)C)CN3C)n2)cc1 | -0.383
COc1ccc(Cc2ncc3c(n2)CN(C(=O)CN(C)C)C3)cc1 | -8
O=C(NCc1ccccc1-n1cccn1)C1CC2(CCNCC2)CN1 (configuration not stated) | -1.74
CCn1cnnc1C1CCN(C(=O)c2ccc(OC(C)C)nc2)CC1 | 5.53
CCN(C)S(=O)(=O)N1CCCC(c2cccc(C(=O)O)c2)C1 (configuration not stated) | -8.54
CCc1nnsc1C(=O)N1CCCN(Cc2ccccc2)CC1 | -8.56
CCCN(C)S(=O)(=O)NC(=O)c1ccc(CC)o1 | 0.645
O=C(NC1CCCC1)N1C[C@H]2CN(c3ccccn3)C[C@@]2(C(=O)O)C1 | 6.72
O=C(NCCc1ccncc1)c1cccnc1OCC(F)(F)F | -1.85
CCN(CC)CCNC(=O)CCc1c(C)nn(-c2cccc(Cl)c2)c1C | 0.617
O=C(NCc1nnc2n1CCC2)c1cn(-c2ccccc2Br)nn1 | -2.93
Cc1ccc(C(=O)N2CCC3(CC2)CC(N2CCOCC2)C3)cc1 | -12.7
CN(C)c1cncc(C2CCCN2S(=O)(=O)c2cn(C)cn2)n1 (configuration not stated) | 14.9
CC(C)C[C@@H](CO)n1cc(-c2cncnc2)nn1 | 1.71
